The numbers were not newly measured in patent publication US20070066584A1, “Amido compounds and their use as pharmaceuticals” (priority 2005, published 2007), which cites them from elsewhere.

The target in this data set is T1, 11βHSD1 (Homo sapiens, UniProt P28845).
T1 construct: host or cells: healthy volunteers (eye; non-pigmented epithelial cells), in vivo
The conditions noted are these: healthy volunteers; after seven days of carbenoxolone treatment.

T1 sequence (P28845 whole entry): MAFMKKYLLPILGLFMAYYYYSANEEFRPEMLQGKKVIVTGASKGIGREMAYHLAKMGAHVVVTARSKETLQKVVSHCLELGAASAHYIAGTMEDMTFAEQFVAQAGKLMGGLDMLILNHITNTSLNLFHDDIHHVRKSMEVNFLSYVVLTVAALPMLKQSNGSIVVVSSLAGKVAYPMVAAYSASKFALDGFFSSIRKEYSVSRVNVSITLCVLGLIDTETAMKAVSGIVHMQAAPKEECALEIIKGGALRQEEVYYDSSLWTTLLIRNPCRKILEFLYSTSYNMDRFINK

With `CC1(C)[C@@H](OC(=O)CCC(=O)O)CC[C@]2(C)[C@H]3C(=O)C=C4[C@@H]5C[C@@](C)(C(=O)O)CC[C@]5(C)CC[C@@]4(C)[C@]3(C)CC[C@@H]12` [carbenoxolone], the IOP reduced was 18%.
